Results as given in ChEMBL document CHEMBL2074308, “5'-Amino acid esters of antiviral nucleosides, acyclovir, and AZT are absorbed by the intestinal PEPT1 peptide transporter” (Pharm Res, 1998).

T1: Solute carrier family 15 member 1 (Homo sapiens, UniProt P46059)
T1 sequence (P46059 whole entry): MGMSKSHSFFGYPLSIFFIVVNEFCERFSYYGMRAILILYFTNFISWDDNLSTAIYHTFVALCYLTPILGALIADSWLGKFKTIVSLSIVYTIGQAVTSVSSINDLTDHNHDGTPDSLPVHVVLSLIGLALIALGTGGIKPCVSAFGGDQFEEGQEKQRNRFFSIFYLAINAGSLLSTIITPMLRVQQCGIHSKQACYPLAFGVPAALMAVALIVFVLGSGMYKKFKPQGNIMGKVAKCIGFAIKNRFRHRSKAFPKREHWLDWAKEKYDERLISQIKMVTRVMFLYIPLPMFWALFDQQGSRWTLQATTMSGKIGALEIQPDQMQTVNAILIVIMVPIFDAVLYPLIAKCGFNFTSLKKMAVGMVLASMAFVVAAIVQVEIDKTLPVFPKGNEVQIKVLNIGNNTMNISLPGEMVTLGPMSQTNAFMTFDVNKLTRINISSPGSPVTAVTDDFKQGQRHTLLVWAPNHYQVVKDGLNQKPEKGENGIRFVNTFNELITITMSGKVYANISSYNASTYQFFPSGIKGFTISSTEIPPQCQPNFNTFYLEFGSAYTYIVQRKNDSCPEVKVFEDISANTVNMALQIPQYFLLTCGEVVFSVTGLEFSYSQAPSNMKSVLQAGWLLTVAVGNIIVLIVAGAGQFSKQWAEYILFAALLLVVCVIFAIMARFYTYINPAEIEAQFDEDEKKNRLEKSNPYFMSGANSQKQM

B1: Solute carrier family 15 member 1 (Homo sapiens), P46059 (protein)
chain: T1 sequence (P46059 whole entry)

Tests used:
[1] = molecular target: T1, Solute carrier family 15 member 1; test: TP_TRANSPORTER: inhibition of Gly-Sar uptake (Gly-Sar: 20 uM) in PEPT1-expressing CHO cells; assay type: functional, cell-based
[2] = molecular target: T1, Solute carrier family 15 member 1; test: TP_TRANSPORTER: inhibition of Gly-Sar uptake, L-form (Gly-Sar: 20 uM) in PEPT1-expressing CHO cells; assay type: functional, cell-based
[3] = molecular target: T1, Solute carrier family 15 member 1; test: TP_TRANSPORTER: inhibition of Gly-Sar uptake, D-form (Gly-Sar: 20 uM) in PEPT1-expressing CHO cells; assay type: functional, cell-based
[4] = substrate: CC(C)[C@H](N)C(=O)OCCOCn1cnc2c(=O)nc(N)[nH]c21; settings: Caco-2
Description: TP_TRANSPORTER: transepithelial transport (apical to basal), L-form in Caco-2 cells

| Molecule | IC50 [1] | IC50 [2] | IC50 [3] | Km [4] |
| --- | --- | --- | --- | --- |
| CC1=C(C(=O)O)N2C(=O)[C@@H](NC(=O)[C@H](N)C3=CCC=CC3)[C@H]2SC1 [CEPHRADINE] | 15000 µM |  |  |  |
| CCOC(=O)[C@H](CCc1ccccc1)N[C@@H](C)C(=O)N1CCC[C@H]1C(=O)O [ENALAPRIL] | 15000 µM |  |  |  |
| NCC(=O)OCCOCn1cnc2c(=O)[nH]c(N)nc21 [GLYCYL ESTER OF ACYCLOVIR] | 1400 µM |  |  |  |
| CC(C)[C@H](N)C(=O)OCCOCn1cnc2c(=O)[nH]c(N)nc21 [VALACYCLOVIR] | 400 µM | 1100 µM | 3400 µM |  |
| B1 |  |  |  | 292 µM |
